Legend:
Assay in all cases: relative viability (nuclei count vs DMSO), 5 days (fraction); higher = more cells survive
[1] = system: 201T
Procedure, shortened: (§1)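 Relative viability was taken as the ratio of nuclei in treated wells to nuclei in vehicle wells. Lung cancer cell lines in 1536-well plates received compounds by pin tool one day after seeding, either one drug alone or a fixed anchor-drug dose plus five library-drug doses (not always all listed) in √10 steps. Nuclei were counted on 4× images after 5 days of treatment, and values are medians of duplicate plates.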

[2] = system: ABC-1
Procedure, shortened: as §1

[3] = system: CAL-12T
Procedure, shortened: as §1

[4] = system: COR-L23
Procedure, shortened: as §1

[5] = system: HOP-62
Procedure, shortened: as §1

[6] = system: LC-2-ad
Procedure, shortened: as §1

[7] = system: LCLC-103H
Procedure, shortened: as §1

[8] = system: NCI-H1355
Procedure, shortened: as §1

[9] = system: NCI-H1395
Procedure, shortened: as §1

[10] = system: NCI-H1651
Procedure, shortened: as §1

[11] = system: NCI-H1666
Procedure, shortened: as §1

[12] = system: NCI-H1993
Procedure, shortened: as §1

[13] = system: NCI-H2085
Procedure, shortened: as §1

[14] = system: NCI-H2170
Procedure, shortened: as §1

[15] = system: NCI-H2228
Procedure, shortened: as §1

[16] = system: NCI-H2347
Procedure, shortened: as §1

[17] = system: NCI-H23
Procedure, shortened: as §1

[18] = system: NCI-H322M
Procedure, shortened: as §1

[19] = system: NCI-H520
Procedure, shortened: as §1

[20] = system: NCI-H647
Procedure, shortened: as §1

[21] = system: NCI-H661
Procedure, shortened: as §1

[22] = system: NCI-H838
Procedure, shortened: as §1

For `O=C(O)CCCCC(CCSCc1ccccc1)SCc1ccccc1` (centres undefined) [CPI-613] + COc1cc2c(Oc3ccc(NC(=O)C4(C(=O)Nc5ccc(F)cc5)CC4)cc3F)ccnc2cc1OCCCN1CCOCC1 [Foretinib] (partner 0.25 µM), the relative viability ([1]; first compound 5 µM) was 1.12, the relative viability ([1]; first compound 15.81 µM) was 1.03 and the relative viability ([1]; first compound 50 µM) was 1.11. It also gave a relative viability ([1]; first compound 158.11 µM) of 0.329, a relative viability ([1]; first compound 500 µM) of 0.0557 and a relative viability ([2]; first compound 5 µM) of 1.14. It also gave a relative viability ([2]; first compound 15.81 µM) of 0.929, a relative viability ([2]; first compound 50 µM) of 0.996 and a relative viability ([2]; first compound 158.11 µM) of 0.243. The relative viability ([2]; first compound 500 µM) was 0.0969, the relative viability ([3]; first compound 5 µM) was 0.981 and the relative viability ([3]; first compound 15.81 µM) was 0.89. It also gave a relative viability ([3]; first compound 50 µM) of 1.11, a relative viability ([3]; first compound 158.11 µM) of 0.142 and a relative viability ([3]; first compound 500 µM) of 0.015. The relative viability ([4]; first compound 5 µM) was 0.983, the relative viability ([4]; first compound 15.81 µM) was 0.995 and the relative viability ([4]; first compound 50 µM) was 0.714. It also gave a relative viability ([4]; first compound 158.11 µM) of 0.614, a relative viability ([4]; first compound 500 µM) of 0.0368 and a relative viability ([5]; first compound 5 µM) of 1.06. It also gave a relative viability ([5]; first compound 15.81 µM) of 1.04, a relative viability ([5]; first compound 50 µM) of 1.11 and a relative viability ([5]; first compound 158.11 µM) of 0.39. It also gave a relative viability ([5]; first compound 500 µM) of 0.231, a relative viability ([6]; first compound 5 µM) of 0.842 and a relative viability ([6]; first compound 15.81 µM) of 0.796. For the same molecule, the relative viability ([6]; first compound 50 µM) was 0.957, the relative viability ([6]; first compound 158.11 µM) was 0.434 and the relative viability ([6]; first compound 500 µM) was 0.0582. It also gave a relative viability ([7]; first compound 5 µM) of 0.744, a relative viability ([7]; first compound 15.81 µM) of 0.757 and a relative viability ([7]; first compound 50 µM) of 0.805. The relative viability ([7]; first compound 158.11 µM) was 0.174, the relative viability ([7]; first compound 500 µM) was 0.243 and the relative viability ([8]; first compound 5 µM) was 0.941. It also gave a relative viability ([8]; first compound 15.81 µM) of 0.94, a relative viability ([8]; first compound 50 µM) of 0.998 and a relative viability ([8]; first compound 158.11 µM) of 0.455. For the same molecule, the relative viability ([8]; first compound 500 µM) was 0.137, the relative viability ([9]; first compound 5 µM) was 0.973 and the relative viability ([9]; first compound 15.81 µM) was 0.971. It also gave a relative viability ([9]; first compound 50 µM) of 0.916, a relative viability ([9]; first compound 158.11 µM) of 0.94 and a relative viability ([9]; first compound 500 µM) of 0.961. The relative viability ([10]; first compound 5 µM) was 0.794, the relative viability ([10]; first compound 15.81 µM) was 0.838 and the relative viability ([10]; first compound 50 µM) was 0.974. For the same molecule, the relative viability ([10]; first compound 158.11 µM) was 0.295, the relative viability ([10]; first compound 500 µM) was 0.088 and the relative viability ([11]; first compound 5 µM) was 0.944. The relative viability ([11]; first compound 15.81 µM) was 0.901, the relative viability ([11]; first compound 50 µM) was 0.971 and the relative viability ([11]; first compound 158.11 µM) was 0.397. For the same molecule, the relative viability ([11]; first compound 500 µM) was 0.206, the relative viability ([12]; first compound 5 µM) was 0.829 and the relative viability ([12]; first compound 15.81 µM) was 0.78. For the same molecule, the relative viability ([12]; first compound 50 µM) was 0.961, the relative viability ([12]; first compound 158.11 µM) was 0.509 and the relative viability ([12]; first compound 500 µM) was 0.452. It also gave a relative viability ([13]; first compound 5 µM) of 0.767, a relative viability ([13]; first compound 15.81 µM) of 0.927 and a relative viability ([13]; first compound 50 µM) of 0.933. It also gave a relative viability ([13]; first compound 158.11 µM) of 0.286, a relative viability ([13]; first compound 500 µM) of 0.0979 and a relative viability ([14]; first compound 5 µM) of 0.767. The relative viability ([14]; first compound 15.81 µM) was 0.906, the relative viability ([14]; first compound 50 µM) was 0.929 and the relative viability ([14]; first compound 158.11 µM) was 0.795. It also gave a relative viability ([14]; first compound 500 µM) of 0.139, a relative viability ([15]; first compound 5 µM) of 0.719 and a relative viability ([15]; first compound 15.81 µM) of 0.948. The relative viability ([15]; first compound 50 µM) was 0.78, the relative viability ([15]; first compound 158.11 µM) was 0.332 and the relative viability ([15]; first compound 500 µM) was 0.088. The relative viability ([16]; first compound 5 µM) was 0.7, the relative viability ([16]; first compound 15.81 µM) was 1.05 and the relative viability ([16]; first compound 50 µM) was 1.09. It also gave a relative viability ([16]; first compound 500 µM) of 1.05, a relative viability ([17]; first compound 5 µM) of 1.03 and a relative viability ([17]; first compound 15.81 µM) of 0.917. It also gave a relative viability ([17]; first compound 50 µM) of 0.985, a relative viability ([17]; first compound 158.11 µM) of 0.402 and a relative viability ([17]; first compound 500 µM) of 0.0153. It also gave a relative viability ([18]; first compound 5 µM) of 0.969, a relative viability ([18]; first compound 15.81 µM) of 0.972 and a relative viability ([18]; first compound 50 µM) of 1.04. The relative viability ([18]; first compound 158.11 µM) was 0.689, the relative viability ([18]; first compound 500 µM) was 0.0324 and the relative viability ([19]; first compound 5 µM) was 0.755. It also gave a relative viability ([19]; first compound 15.81 µM) of 0.784, a relative viability ([19]; first compound 50 µM) of 0.623 and a relative viability ([19]; first compound 158.11 µM) of 0.523. For the same molecule, the relative viability ([19]; first compound 500 µM) was 0.142, the relative viability ([20]; first compound 5 µM) was 0.992 and the relative viability ([20]; first compound 15.81 µM) was 1.2. It also gave a relative viability ([20]; first compound 50 µM) of 1.15, a relative viability ([20]; first compound 158.11 µM) of 0.34 and a relative viability ([20]; first compound 500 µM) of 0.0186. For the same molecule, the relative viability ([21]; first compound 5 µM) was 0.982, the relative viability ([21]; first compound 15.81 µM) was 1.06 and the relative viability ([21]; first compound 50 µM) was 0.841. It also gave a relative viability ([21]; first compound 158.11 µM) of 0.371, a relative viability ([21]; first compound 500 µM) of 0.142 and a relative viability ([22]; first compound 5 µM) of 0.98. It also gave a relative viability ([22]; first compound 15.81 µM) of 1.02, a relative viability ([22]; first compound 50 µM) of 1.03 and a relative viability ([22]; first compound 158.11 µM) of 0.657. It also gave a relative viability ([22]; first compound 500 µM) of 0.116.
